Data set [1] relates to fat cells (isolated adipose cells). The experiment in a line: In Vitro Fat Cell Bioassay (insulin-like activity, conversion of glucose-1-14C to 14CO2). The format is cell-based. Particulars: for 14-CO2: average CPM, baseline not subtracted, repeat lines are separate runs. On the procedure: It is known that fat cells incubated in Krebs-Ringer bicarbonate buffer containing glucose and albumin convert glucose-1-^14 C to ^14 CO2. […] This is the basis of the bioassay of insulin-like activity described in J. Gliemann, Diabetes, 14, 643(1965). The method for preparing the necessary isolated adipose cells retaining their metabolic activity is described in M. Rodbell, J. Biol. Chem., 239, 375(1964).
The compounds of the present invention have been bioassayed for their insulin-like activity essentially by the process set forth in Gliemann and Rodbell.
*All compounds were tested at 100 μg./ml.
**Insulin standard at 25 μu/ml.
1. An average CPM value is taken of each group.
2. The average value of Baseline (Buffer control) is subtracted from the
average of each of the remaining groups.
3. In order to obtain Relative Activity percentage, the average CPM value
for each compound (minus the average CPM value of the control group) is
divided by the average CPM value in the insulin standard (minus the
average CPM value of the controls), and the resultant value multiplied by
100 to obtain % activity.

The test system is the same in data set [2]. The note with it: fat cells in Krebs-Ringer bicarbonate buffer containing glucose and albumin; known from Gliemann; cited from earlier work.
Setting [3] is: compounds tested at 100 μg./ml, baseline subtracted, relative to insulin standard 25 μu/ml = 100%.

“And” between values parts separate entries of the source, which are not always exact repeats. Equal entries are not always repeated.

The compound `NCCCCCCO[C@H]1O[C@H](CO)[C@@H](O)[C@H](O)[C@@H]1O` [1-(6-aminohexyl) α-D-mannopyranoside, 1-(6-aminohexyl)-α-D-mannopyranoside] had a 14-CO2 in data set [1] (compounds tested at 100 μg./ml) of 3330 cpm. The same compound registered an activity at 100 µg/mL in data set [1] (setting [3]) of 28%.

On to `NCCCCCCS[C@@H]1O[C@H](CO)[C@@H](O)[C@H](O)[C@@H]1O` [1-[(6-aminohexyl)thio]-1-deoxy-β-D-mannopyranoside], for which the 14-CO2 in data set [1] (compounds tested at 100 μg./ml) is 4898 cpm and 5177 cpm. Besides, in data set [1] (setting [3]), the “Relative Activity %” value was 78% and the activity at 100 µg/mL is 93%.

On to `NCCCCCCC(=O)N[C@@H]1O[C@H](CO)[C@@H](O)[C@H](O)[C@@H]1O` [1-[(7-aminoheptanoyl)amino]-1-deoxy-β-D-mannopyranoside], for which the 14-CO2 in data set [1] (compounds tested at 100 μg./ml) is listed as 1952 cpm. This compound also displayed an activity at 100 µg/mL in data set [1] (setting [3]) of 26%.

Insulin: Insulin standard at 25 μu/ml: the “stimulation of 14CO2 production” value in data set [2] is “stimulation of severalfold”. In data set [1] (Insulin standard at 25 μu/ml, reference set to 100%), the “Relative Activity %” value is given as 100%.

(Values after patent US4228274A, “1-Substituted glycopyranosides” (Merck & Co., Inc., priority 1978, dated 1980).)
